{"source": "patent US9982021B2", "about": "“Composition for dissolving thrombi, and a pharmaceutical composition for treating stenotic or occlusive vascular diseases which comprises the same” (INDUSTRY-ACADEMIC COOPERATION FOUNDATION, YONSEI UNIVERSITY, priority 2010, dated 2018)", "key": {"[1]": {"tested_on": "mouse PRP (platelet rich plasma)", "test": "In vitro platelet aggregation assay (ADP, Aggregometer)", "type": "cell-based", "conditions": "for IC50: ADP, mouse PRP, read-out: IC50 platelet aggregation inhibition", "text": "Saxatilin derivatives and ADP were administrated to mouse PRP (platelet rich plasma) and measured aggregation level using Aggregometer (CHRONO-LOG, USA) to evaluate activity of the present saxatilin derivatives (Table 1)."}, "[2]": {"test": "Mortality and bleeding after the r-saxatilin treatment", "type": "in vivo, ICR mice", "conditions": "5 mg/kg bolus injection group", "text": "Total 51 animals were used for evaluation of thrombolytic effects of r-saxatilin."}, "[3]": {"tested_on": "FeCl3-induced carotid thrombus", "test": "Intravenous thrombolysis in FeCl3-induced carotid artery thrombosis model (carotid blood flow)", "type": "in vivo, ICR mice", "protocol": "8-week-old male ICR (Institute of Cancer Research) mice (OrientBio) were used. The care and use of laboratory animals were performed according to institutionally approved protocol in accordance with the National Institutes of Health's Guide for the care and use of laboratory animals. For operative procedures, the animals were anesthetized with an inhalation of 5% isoflurane in a mixture of 70% N2O and 30% O2. Anesthesia was maintained with 2% isoflurane. During the operative procedures, body temperature was monitored continuously with a rectal probe and was maintained at 37.0±0.2° C. by means of a homeothermic blanket control unit and heating pad (Harvard Apparatus, Holliston, Mass.). To test the thrombolytic activity of r-saxatilin in vivo, FeCl3 (Sigma Aldrich, USA)-induced carotid thrombus model was utilized. A midline cervical incision was made, and the left common carotid artery was carefully dissected under a surgical microscope. An ultrasonic Doppler flow probe (Transonic MA0.7PSB) was placed around midportion of the common carotid artery (CCA). Carotid blood flow was obtained with a Transonic TS420 Blood Flow Meter (Transonic Instruments, Ithaca, N.Y.) and iWorx IX-304T data acquisition system (iWorx Systems, Inc., Dover, N.H.). The control baseline flow of the CCA was measured for 5 minutes. After the determination of the control baseline flow, the probe was removed. Oxidative vascular injury with chemical stress was induced by placing a filter paper (700×500 μm) saturated with 50% FeCl3 on the adventitial surface of the midpoint of the exposed CCA for 5 min. After removing the filter paper, the CCA was washed with normal saline and its blood flow was recorded. Thrombus formation and arterial occlusion were determined by decrease of blood flow and the complete occlusion was defined as absence of blood flow maintained for 10 minutes.\nTen minutes after occlusion of the CCA, r-saxatilin was administered intravenously via the left femoral vein by using an infusion pump (KD Scientific Inc., USA) connected to PE-10 tubing. The carotid blood flow was continuously monitored for 2 hours from the initial time of injection.\nTo evaluate dose response of r-saxatilin, the animals were randomly divided into seven groups (five mice in each group): normal saline (control group), 1, 1.75, 2.5, 3.75, 5.0, and 10.0 mg/kg of r-saxatilin administration groups. 10% of the dose was administered in bolus intravenously and the rest was infused continuously for 60 min.\nEffects of r-saxatilin for thrombolysis were assessed according to administration method. For this experiment, a total dose of 5 mg/kg of r-saxatilin was used in each animal, and the animals were divided into four groups (five mice in each group): (a) bolus injection of total dose (5 mg/kg); (b) double bolus injection of r-saxatilin with a half dose (2.5 mg/kg) of r-saxatilin at 10 min after occlusion and 60 min after the first bolus injection; (c) a half dose bolus injection (2.5 mg/kg) at 10 min after occlusion, and then continuous infusion for 60 min of the remaining dose; and (d) bolus injection of 10% of the total dose (0.5 mg/kg) at 10 min after occlusion, and then continuous infusion of the remaining dose (4.5 mg/kg) for 60 min.\nThe presence and degree of recanalization were assessed by measuring blood flow. Data of blood flow at baseline and those monitored continuously for 2 hours after CCA occlusion were acquired by using iWorx Labscribe2 data acquisition software (version 2.045000). Immediately after 2 hours of blood flow monitoring, the CCA was obtained in all mice, fixed with 4% paraformaldehyde solution, and embedded in paraffin for histological examination. The paraffin blocks were consecutively sectioned in a transverse direction with 3 μm-thickness, mounted on a glass slide, and stained with hematoxylin and eosin.\nThe carotid blood flow was analyzed by the area under the flow-time curves. […]"}, "[4]": {"tested_on": "FeCl3-induced carotid thrombus", "test": "Intravenous thrombolysis in FeCl3-induced carotid artery thrombosis model (carotid blood flow)", "type": "in vivo, ICR mice", "remark": "listed apart in the source"}, "[5]": {"conditions": "total 5 mg/kg, bolus injection of total dose"}}, "note": "Entries after “also recorded” stand apart in the source; their conditions may differ."}
{"substance": "XL2: saxatilin derivative (deletion mutant), SEQ ID NO:7, expressed in Pichia (CKLRPGAQCAEGLCCDQCRFMKEGTICRMARGDDMDDYCNGISAGC; aritificially made peptide comprising Arg-Gly-Asp motif having thrombolytic activity)", "values": [{"measurement": "IC50", "setting": "[1]", "value": 986, "unit": "nM"}]}
{"substance": "saxatilin", "values": [{"measurement": "bleeding in the cervical incision", "setting": "[2]", "value": "one animal suffered bleeding"}, {"measurement": "mortality", "setting": "[2]; about 90 min after bolus, total 51 animals", "value": "one animal was died from bleeding"}, {"measurement": "effective recanalization (blood flow >=50% of baseline maintained >30 min), mice", "setting": "[3]; 1 mg/kg", "value": "No effective recanalization"}, {"measurement": "blood flow, area under flow-time curve, percent of mean control baseline blood flow", "setting": "[3]; 1 mg/kg i.v., 10% bolus + 60 min infusion, 2 h monitoring", "value": "2.36±0.78", "unit": "%"}, {"measurement": "effective recanalization, mice", "setting": "[3]; 1.75 mg/kg", "value": "No effective recanalization"}, {"measurement": "blood flow, area under flow-time curve, percent of mean control baseline blood flow", "setting": "[3]; 1.75 mg/kg i.v., 10% bolus + 60 min infusion", "value": "4.97±3.94", "unit": "%"}, {"measurement": "effective recanalization, mice", "setting": "[3]; 2.5 mg/kg", "value": "two of five"}, {"measurement": "time to effective recanalization", "setting": "[3]; 2.5 mg/kg", "value": "32.92 ± 23.52", "unit": "min"}, {"measurement": "blood flow, area under flow-time curve, percent of mean control baseline blood flow", "setting": "[3]; 2.5 mg/kg i.v., 10% bolus + 60 min infusion", "value": "32.50±33.70", "unit": "%"}, {"measurement": "effective recanalization, mice", "setting": "[3]; 3.75 mg/kg", "value": "three of five"}, {"measurement": "time to effective recanalization", "setting": "[3]; 3.75 mg/kg", "value": "21.75 ± 21.62", "unit": "min"}, {"measurement": "effective recanalization, mice", "setting": "[3]; 5 mg/kg, 10% bolus + infusion", "value": "all mice"}, {"measurement": "time to effective recanalization", "setting": "[3]; 5 mg/kg, bolus 10% of total dose + continuous infusion", "value": "13.92 ± 6.02", "unit": "min"}, {"measurement": "time to effective recanalization", "setting": "[3]; 5 mg/kg, bolus injection of total dose", "value": "2.86 ± 0.22", "unit": "min"}, {"measurement": "time to effective recanalization", "setting": "[3]; 5 mg/kg, double bolus injection", "value": "13.44 ± 26.31", "unit": "min"}, {"measurement": "time to effective recanalization", "setting": "[3]; 5 mg/kg, half dose bolus and continuous infusion of other half", "value": "19.48 ± 25.94", "unit": "min"}, {"measurement": "effective recanalization, mice", "setting": "[3]; 10 mg/kg", "value": "all mice"}, {"measurement": "time to effective recanalization", "setting": "[3]; 10 mg/kg", "value": "19.46 ± 19.75", "unit": "min"}, {"measurement": "blood flow, area under flow-time curve, versus baseline and 5 mg/kg", "setting": "[3]; 10 mg/kg i.v., 10% bolus + 60 min infusion, listed as r-saxatilin", "value": "no significant difference; also recorded: restored nearly to the baseline level"}, {"measurement": "reocclusion", "setting": "[3]; total 5 mg/kg, bolus 10% of total dose + continuous infusion of remaining dose", "value": "no reocclusion"}, {"measurement": "mean percentage of blood flow compared to baseline blood flow", "setting": "[3]; [5]", "value": "77.01±46.11", "unit": "%"}, {"measurement": "time point of abrupt reocclusion", "setting": "[3]; [5]", "value": "about 100 min"}, {"measurement": "mean percentage of blood flow compared to baseline blood flow", "setting": "[3]; total 5 mg/kg, double bolus injection with a half dose (2.5 mg/kg each)", "value": "85.23±29.95", "unit": "%"}, {"measurement": "time point of abrupt reocclusion", "setting": "[3]; total 5 mg/kg, double bolus injection, after the first injection", "value": "about 50 min"}, {"measurement": "time point of abrupt reocclusion", "setting": "[3]; total 5 mg/kg, half dose bolus and continuous infusion of other half", "value": "about 110 min"}, {"measurement": "mean percentage of blood flow compared to baseline blood flow", "setting": "[3]; total 5 mg/kg, half dose bolus then continuous infusion of remaining dose for 60 min", "value": "80.72±30.13", "unit": "%"}, {"measurement": "IC50", "setting": "[1]", "value": 176, "unit": "nM"}, {"measurement": "treatment concentration giving similar level of aggregation inhibition", "setting": "[1]; FIG. 6", "value": "approximately 0.7 μM"}, {"measurement": "restored blood flow (area under flow-time curve)", "setting": "[4]; 20 mg/kg", "value": "60.92±39.52", "unit": "%"}, {"measurement": "restoration of blood flow and reocclusion", "setting": "[4]; 40 mg/kg", "value": "restored to normal blood flow and maintained without reocclusion"}]}
